Measurements as given in paper PMC5903342 (Oxidative Medicine and Cellular Longevity, 2018).

How the values were obtained:
[1] = tested on: Salmonella enterica serovar typhimurium TA102; experiment: Antimutagenicity assay (Salmonella/microsome), strain TA102; assay type: cell-based; conditions: TA102, cotreatment
Source text: Salmonella enterica serovar typhimurium (S. typhimurium) strains TA100, TA1535, TA104, and TA102 from the authors' laboratory stock were used as described by Maron and Ames in the antimutagenicity assay.
We carried out the coexposure protocol of the antimutagenicity assay to investigate the potential of the compound to protect against alkylation-mediated genetic mutation in S. typhimurium TA100, TA102, TA104, and TA1535 strains according to Ajith and Soja. The test proceeded both in the absence and presence of a metabolic activation system (4% S9 mix, Aroclor preinduced, from MOLTOX Inc., USA). DMSO 1% served as the negative control. […] The mixtures were incubated in a shaker at 37°C (preincubation) under light protection. After a total of 60 min of cotreatment, the mixtures were added to and mixed with 2 mL top agar containing 0.05 mmol/L L-histidine and D-biotin for the S. typhimurium strains. Each of these was then spread on a minimal glucose agar (1.5% agar, Vogel-Bonner medium E, containing 2% glucose) plate. After the top agar solidified, the plates were incubated at 37°C for 60–72 h. Each tester strain was assayed in triplicate and repeated at least twice, and the number of revertant colonies was counted for each tester strain and treatment group. The counts of revertant colonies were obtained to build a dose-response curve and calculate the percentage of reduction.

HepG2 cells = experiment: Flow cytometry cell cycle analysis; assay type: cell-based, Human; conditions: 24 h
Procedure: The cells (1 × 10^5) were washed in PBS solution and centrifuged at 400 ×g for 5 min, and after, the cells were suspended in DNA staining solution (0.3% Triton X-100 and 50 μg/mL propidium iodide (PI) in a 43 mM citrate buffer), as previously described. After 45 minutes of treatment with 50 μg/mL ribonuclease A (Sigma, EUA), the PI fluorescence was determined (10,000 events per sample) in a Gallios flow cytometer (Beckman Coulter, USA). Data were analyzed by the Summit v4.3 software. The experiments were done at least three times, and statistical analysis was performed by one-way ANOVA followed by a Tukey's post hoc test.

[2] = tested on: Salmonella enterica serovar typhimurium TA100; experiment: Antimutagenicity assay (Salmonella/microsome), strain TA100 (co-, pre- and posttreatment); assay type: cell-based
[3] = +S9, CPA (150 μM), atorvastatin 20 μM
[4] = +S9, CPA (150 μM), atorvastatin 100 μM
[5] = +S9, CPA (150 μM), atorvastatin 200 μM
[6] = +S9, CPA (150 μM), atorvastatin 1000 μM
[7] = −S9, MMS (100 μM), atorvastatin 20 μM
[8] = −S9, MMS (100 μM), atorvastatin 100 μM
[9] = −S9, MMS (100 μM), atorvastatin 200 μM
[10] = −S9, MMS (100 μM), atorvastatin 1000 μM
[11] = TA100, cotreatment, +S9, CPA (150 μM), atorvastatin 20 μM
[12] = TA100, cotreatment, +S9, CPA (150 μM), atorvastatin 100 μM
[13] = TA100, cotreatment, +S9, CPA (150 μM), atorvastatin 200 μM
[14] = TA100, cotreatment, +S9, CPA (150 μM), atorvastatin 1000 μM
[15] = TA100, cotreatment, −S9, MMS (100 μM), atorvastatin 20 μM
[16] = TA100, cotreatment, −S9, MMS (100 μM), atorvastatin 100 μM
[17] = TA100, cotreatment, −S9, MMS (100 μM), atorvastatin 200 μM
[18] = TA100, cotreatment, −S9, MMS (100 μM), atorvastatin 1000 μM
[19] = TA100, posttreatment, +S9, CPA (150 μM), atorvastatin 20 μM
[20] = TA100, posttreatment, +S9, CPA (150 μM), atorvastatin 200 μM
[21] = TA100, posttreatment, +S9, CPA (150 μM), atorvastatin 1000 μM
[22] = TA100, posttreatment, −S9, MMS (100 μM), atorvastatin 20 μM
[23] = TA100, posttreatment, −S9, MMS (100 μM), atorvastatin 100 μM
[24] = TA100, posttreatment, −S9, MMS (100 μM), atorvastatin 200 μM
[25] = TA100, posttreatment, −S9, MMS (100 μM), atorvastatin 1000 μM
[26] = TA100, pretreatment, +S9, CPA (150 μM), atorvastatin 20 μM
[27] = TA100, pretreatment, +S9, CPA (150 μM), atorvastatin 100 μM
[28] = TA100, pretreatment, +S9, CPA (150 μM), atorvastatin 200 μM
[29] = TA100, pretreatment, +S9, CPA (150 μM), atorvastatin 1000 μM
[30] = TA100, pretreatment, −S9, MMS (100 μM), atorvastatin 20 μM
[31] = TA100, pretreatment, −S9, MMS (100 μM), atorvastatin 100 μM
[32] = TA100, pretreatment, −S9, MMS (100 μM), atorvastatin 200 μM
[33] = TA100, pretreatment, −S9, MMS (100 μM), atorvastatin 1000 μM

## CC(C)c1c(C(=O)Nc2ccccc2)c(-c2ccccc2)c(-c2ccc(F)cc2)n1CC[C@@H](O)C[C@@H](O)CC(=O)O [AVA, atorvastatin]
[1]; [3]
  % reduction: 7.27%
  His+ (revertant colonies): 566 ± 54
[1]; [4]
  % reduction: 9.09%
  His+ (revertant colonies): 560 ± 38
[1]; [5]
  % reduction: 14.55%
  His+ (revertant colonies): 543 ± 42
[1]; [6]
  % reduction: 30%
  His+ (revertant colonies): 496 ± 11
[1]; +S9, CPA (150 μM), atorvastatin 1000 μM, listed as Atorvastatin
  % reduction: 30.00^∗ %
[1]; [7]
  % reduction: 16.03%
  His+ (revertant colonies): 525 ± 32
[1]; [8]
  % reduction: 19.08%
  His+ (revertant colonies): 515 ± 64
[1]; [9]
  % reduction: 29%
  His+ (revertant colonies): 483 ± 91
[1]; −S9, MMS (100 μM), atorvastatin 200 μM, listed as Atorvastatin
  % reduction: 29.01^∗ %
[1]; [10]
  % reduction: 41.2%
  His+ (revertant colonies): 443 ± 28
[1]; −S9, MMS (100 μM), atorvastatin 1000 μM, listed as Atorvastatin
  % reduction: 41.22^∗ %
HepG2 cells; 25 μM AVA alone, in comparison to the control
  Cell cycle pattern: did not induce alterations
HepG2 cells; AVA and CPA cotreatment
  Effect on G1, S and G2 phases: did not affect
HepG2 cells; AVA and MMS cotreatment
  Effect on G1 and S phases: did not affect
  Number of cells in the G2 phase: restored
HepG2 cells; cotreatment 20 μM MMS + AVA 1 μM
  sub-G1 percentage of cells: 12%
HepG2 cells; cotreatment 20 μM MMS + AVA 10 μM
  sub-G1 percentage of cells: 4%
HepG2 cells; cotreatment 20 μM MMS + AVA 25 μM
  sub-G1 percentage of cells: 2%
HepG2 cells; cotreatment AVA + 20 μM MMS
  polyploid subpopulation: 3-4%
HepG2 cells; cotreatment AVA + CPA, no dose dependence
  sub-G1 percentage of cells: 3-4%
HepG2 cells; cotreatment with 25 μM AVA in MMS-exposed (20 μM) cells
  Cell cycle pattern: restored the cell cycle pattern
[2]; [11]
  % reduction: 2.65%
  His+ (revertant colonies): 235 ± 22
[2]; [12]
  % reduction: 6.19%
  His+ (revertant colonies): 230 ± 31
[2]; [13]
  % reduction: 11.50%
  His+ (revertant colonies): 224 ± 15
[2]; [14]
  % reduction: 17.70%
  His+ (revertant colonies): 216 ± 25
[2]; [15]
  % reduction: 7.14%
  His+ (revertant colonies): 204 ± 18
[2]; [16]
  % reduction: 12.5%
  His+ (revertant colonies): 198 ± 22
[2]; [17]
  % reduction: 19.64%
  His+ (revertant colonies): 190 ± 13
[2]; [18]
  % reduction: 23.21%
  His+ (revertant colonies): 186 ± 14
[2]; TA100, posttreatment
  Reduction of DNA injuries caused by MMS or CPA: not able to reduce
[2]; [19]
  % reduction: 12.04%
  His+ (revertant colonies): 257 ± 5
[2]; TA100, posttreatment, +S9, CPA (150 μM), atorvastatin 100 μM
  % reduction: 17.44%
[2]; [20]
  % reduction: 18.49%
  His+ (revertant colonies): 216 ± 8
[2]; [21]
  % reduction: 21.48%
  His+ (revertant colonies): 207 ± 23
[2]; [22]
  % reduction: 5.69%
  His+ (revertant colonies): 257 ± 26
[2]; [23]
  % reduction: 11.86%
  His+ (revertant colonies): 248 ± 23
[2]; [24]
  % reduction: 20.10%
  His+ (revertant colonies): 237 ± 22
[2]; [25]
  % reduction: 23.00%
  His+ (revertant colonies): 233 ± 26
[2]; [26]
  % reduction: 79.4^∗ %
  His+ (revertant colonies): 130 ± 30
[2]; [27]
  % reduction: 81.6^∗ %
  His+ (revertant colonies): 127 ± 19
[2]; [28]
  % reduction: 92.59^∗ %
  His+ (revertant colonies): 111 ± 9
[2]; [29]
  % reduction: 97.92^∗ %
  His+ (revertant colonies): 103 ± 2
[2]; TA100, pretreatment, all concentrations, presence and absence of metabolic conditions
  Antimutagenic activity: exerted antimutagenic activity
[2]; [30]
  % reduction: 45.97^∗ %
  His+ (revertant colonies): 171 ± 14
[2]; [31]
  % reduction: 88.57^∗ %
  His+ (revertant colonies): 117 ± 2
[2]; [32]
  % reduction: 91.43^∗ %
  His+ (revertant colonies): 113 ± 6
[2]; [33]
  % reduction: 98.7^∗ %
  His+ (revertant colonies): 103 ± 4
